In series [1] the test system is H446 (small cell lung cancer) cells. As to the kind of experiment: CellTiter-Glo cell viability assay, H446 cells. The class given is cell-based, human. The following applies: for viability at 0.1 µM / viability at 1 µM / viability at 10 µM: Homo sapiens, NCI-H446. On the procedure: (§1) Using the CellTiter-Glo kit provided by Promega Corporation, cell viability assay was performed on cancer cell lines to evaluate the ability of a compound to kill cancer cells in the in-vitro experiments. The kit measures the ATP levels by an enzymatic Luciferase assay. Normal viable cells will produce a certain level of ATP in metabolism. The enzymic reaction between the ATP product and the luciferase will emit a certain level of luminescent signal, which is captured by a luminometer and recorded as a certain luminescent read. […] When using this method to evaluate the anti-cancer activity of a compound, a certain concentration of an anti-cancer drug is added to the same amount of viable cancer cells, and the luminescent signal reading is acquired at a certain time point via CellTiter-Glo kits. […] Detailed procedure is as follows: a certain amount of small cell lung cancer cells (ATCC catalog No. H446), breast cancer cells (ATCC catalog No. MDAMB231) or colon cancer cells (ATCC catalog No. HCT116) are seeded in 96 wells with the same cell-culture medium, then respectively treated with WQ1001 and other anti-cancer drugs for a time course of 24, 48, and 72 hours. At the respective time points, the cancer cells are mixed with CellTiter-Glo reagents for 1 hour and the corresponding luminescent signals are recorded. Since the luminescent signal reading is proportional to the amount of viable cancer cells, the luminescent signal reading can be translated into the amount of viable cancer cells correspondingly. The cell livability rate is obtained by dividing the amount of viable cancer cells after treated with a certain concentration of anti-cancer drug by the amount of viable cancer cells of the Control Group which are not treated with the drug.

Series [2] relates to MDAMB231 (breast cancer) cells. Kind of series: CellTiter-Glo cell viability assay, MDAMB231 cells. The class given is cell-based. The following applies: 48 hours; for viability at 0.1 µM / viability at 1 µM / viability at 10 µM: Homo sapiens, read-out: MDAMB231 cell viability after drug treatment; for viability at 0.1 µM: MDA-MB-231, 0.1 μM; for viability at 1 µM: MDA-MB-231, 1.0 μM; for viability at 10 µM: MDA-MB-231, 10 μM. On the procedure: as §1

The test system of series [3] is HCT116 (colon cancer) cells. As to the kind of experiment: CellTiter-Glo cell viability assay, HCT116 cells. The class given is cell-based. The following applies: for viability at 0.1 µM / viability at 1 µM / viability at 10 µM: Homo sapiens, read-out: HCT116 cell viability after drug treatment for 48 hours. On the procedure: as §1
On the technique in general: In ATP-based viability assays light output follows the ATP content of the culture.

The next series in a line: Water-solubility. Format: physicochemical. The following applies: for solubility: water. On the procedure: (§2) Table 15 lists comparison of properties between the representative compounds of the present invention and several existing CPT derivatives. In the test, the lactone ring stability was characterized by lactone ring conservation rate measured by HPLC (liquid chromatogram) after placing the test compounds in buffer solution of pH 7.4. The anticancer activity was characterized by viability of H446 cancer cells at 10 μM drug concentration. From the Table, one can learn the differences in water-solubility, lactone ring stability and toxicology of the compounds of the present invention.

The nature of series [4]: Lactone ring stability (lactone ring conservation rate by HPLC in pH 7.4 buffer). The class given is physicochemical. To be noted: lactone ring conservation rate by HPLC after placing in buffer solution of pH 7.4. On the procedure: as §2
Another series concerns the target human serum album (Homo sapiens, UniProt P02768). To be noted: physiological condition; cited from earlier work.
In series [5] the test system is human breast cancer MCF-7 nude mouse xenograft. As to the kind of experiment: In vivo antitumor efficacy, MCF-7 nude mouse xenograft model. To be noted: 35 mg/kg.
Series [6] concerns human colon cancer HT-29 nude mouse xenograft. As to the kind of experiment: In vivo antitumor efficacy, HT-29 nude mouse xenograft model. The following applies: 35 mg/kg.
The test system of series [7] is human small cell lung cancer NCI-H446 nude mouse xenograft. As to the kind of experiment: In vivo antitumor efficacy, NCI-H446 nude mouse xenograft model. On the procedure: The drugs were administered by intravenous injection.
WQ1001 was administered by I.V. injection once every other day for 3 consecutive times, followed by 7 days' rest without drug administration, then one more circle was performed, for a total of 6 times of administration.

Series [8] has as its system human multiple myeloma NCI-H929 nude mouse xenograft. As to the kind of experiment: In vivo antitumor efficacy, NCI-H929 nude mouse xenograft model. The following applies: 10 mg/kg (Table 23), intraperitoneal. On the procedure:
The human multiple myeloma NCI-H929 cells were grafted to nude mice. […] Two days after tumor cell implantation, the drugs were administered by intraperitoneal injection once every 4 days for a total of 3 injections (on Day 2, 6, 10 after cancer cell implantation). The body weight was measured every 2 days.

The mark [9] stands for this setting: H446 cells, 0.1 μM, 48 hours, read-out: H446 cell viability after drug treatment for 48 hours.
Where [10] appears, read: H446 cells, 1.0 μM, 48 hours, read-out: H446 cell viability after drug treatment for 48 hours.
The mark [11] stands for this setting: H446 cells, 10 μM, 48 hours, read-out: H446 cell viability after drug treatment for 48 hours.
Setting [12] is: viability of H446 cancer cells at 10 μM drug concentration (Table 15), read-out: Cancer cell viability.
Where [13] appears, read: viability of H446 cancer cells at 10 μM drug concentration (Table 15).
The mark [14] stands for this setting: topotecan 10 mg/kg i.v., D0, 4, 7, 11, 14, 17, D22.

We go through eight molecules from patent publication US9266911B2, “Camptothecin derivative, and preparation method thereof, and pharmaceutical composition and application” (priority 2011, dated 2016).

In brackets after ≈: the same amount, converted by molar mass. Several values for one entry are separate records, joined by “and”; a condition that tells them apart may be missing. Equal values may be shown once. Read-outs that look alike come from different tables or passages of the source. Some results are limits rather than exact numbers.

Sequence of human serum album (P02768 25-609): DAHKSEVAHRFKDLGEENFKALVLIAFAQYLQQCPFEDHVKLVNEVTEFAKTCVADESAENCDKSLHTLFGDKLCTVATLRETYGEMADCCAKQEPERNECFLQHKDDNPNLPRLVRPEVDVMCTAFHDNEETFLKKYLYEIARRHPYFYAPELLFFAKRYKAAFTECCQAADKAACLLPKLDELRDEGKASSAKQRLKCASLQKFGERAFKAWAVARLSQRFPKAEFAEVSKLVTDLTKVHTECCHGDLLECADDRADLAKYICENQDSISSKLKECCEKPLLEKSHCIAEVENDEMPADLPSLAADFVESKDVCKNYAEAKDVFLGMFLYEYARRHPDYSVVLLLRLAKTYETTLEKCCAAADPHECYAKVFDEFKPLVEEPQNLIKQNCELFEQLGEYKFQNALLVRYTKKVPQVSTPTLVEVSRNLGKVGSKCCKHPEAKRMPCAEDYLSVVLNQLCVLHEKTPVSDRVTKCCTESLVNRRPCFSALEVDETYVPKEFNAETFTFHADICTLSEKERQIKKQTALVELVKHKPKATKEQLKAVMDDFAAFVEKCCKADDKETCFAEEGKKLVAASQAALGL

As usually defined, the viability is a read-out of living cells in per cent, often relative to untreated cells. On to `CC[C@@]1(O)C(=O)OCc2c1cc1n(c2=O)Cc2cc3cc(O)ccc3nc2-1` [10-hydroxyl CPT, 10-Hydroxy-CPT (SN22)], for which the viability at 0.1 µM in series [1] (setting [9]) was determined as 72%; in series [2], 53%; in [3] (HCT-116, 0.1 μM, 48 hours), 15%. For the same molecule, the viability at 1 µM in [1] (setting [10]) was determined as 30%; in [2], 40%; in series [3] (HCT-116, 1.0 μM, 48 hours), 1%. Further, the viability at 10 µM is 24% in series [1] (setting [11]); 18% in series [2]; 9% in series [3] (HCT-116, 10 μM, 48 hours).

A word on the solubility: it is the dissolved amount per volume that the medium holds. Higher therefore signals much dissolved substance. For the molecule `CC[C@@]1(O)C(=O)OCc2c1cc1n(c2=O)Cc2cc3ccccc3nc2-1` [CPT, Camptothecin], the viability at 0.1 µM came to 65% in [1] (setting [9]); 13% in series [2]; 107% in [3] (HCT-116, 48 h, 0.1 μM). Moreover, the viability at 1 µM in series [1] (setting [10]) worked out at 51%; in [2] it was 5%; in [3] (HCT-116, 48 h, 1.0 μM), 76%. Also, the viability at 10 µM in [1] (setting [11]) is 24%; in [1] (setting [12]) it was below 30%; in series [2] it was 3%. For the same molecule, in “Water-solubility”, the solubility was below 100 µg/mL. Also, in series [3] (1.0 μM), the “HCT116 cell viability after drug treatment for 48 hours” value amounted to 82%. This molecule returned a Lactone ring stability in [4] below 50%.

In the case of `CC[C@@]1(OP(=O)(O)O)C(=O)OCc2c1cc1n(c2=O)Cc2cc3ccccc3nc2-1` [CPT-20(S)-phosphate], the Cancer cell viability in series [1] (setting [13]) is above 85%. The molecule further had a Water-solubility in the series “Water-solubility” above 10000 µg/mL. The Lactone ring stability in [4] is above 90%.

Turning to `CCc1c2c(nc3ccc(O)cc13)-c1cc3c(c(=O)n1C2)COC(=O)[C@]3(O)CC` [SN38], the viability at 0.1 µM turned out to be 79% in series [1] (setting [9]); 48% in series [2]; 5% in series [3] (HCT-116, 48 h, 0.1 μM). The viability at 1 µM in [1] (setting [10]) came out at 60%; in series [2] it was 33%; in series [3] (HCT-116, 48 h, 1.0 μM), 2%. In addition, the viability at 10 µM was found to be 28% in series [1] (setting [11]); 20% in series [2]; 6% in series [3] (HCT-116, 48 h, 10 μM).

Consider `CCC(O)(C(=O)O)c1cc2n(c(=O)c1CO)Cc1cc3ccccc3nc1-2` (stereo not drawn) [carboxylate derivative], for which the “preferential binding to human serum album, relative to CPT” value on human serum album is on record as 150 fold.

Consider `COc1cc([C@@H]2c3cc4c(cc3[C@@H](O[C@@H]3O[C@@H]5CO[C@@H](C)O[C@H]5[C@H](O)[C@H]3O)[C@H]3COC(=O)[C@H]23)OCO4)cc(OC)c1O` [etoposide], for which the viability at 0.1 µM in [1] (setting [9]) is 95%; in [3] (HCT-116, 48 h, 0.1 μM), 102%. Moreover, the viability at 1 µM was 73% in series [1] (setting [10]) and 89% in series [3] (HCT-116, 48 h, 1.0 μM). For the same molecule, the viability at 10 µM in series [1] (setting [11]) is 47%; in series [3] (HCT-116, 48 h, 10 μM), 29%.

For `CCc1c2c(nc3ccc(OC(=O)N4CCC(N5CCCCC5)CC4)cc13)-c1cc3c(c(=O)n1C2)COC(=O)[C@]3(O)CC` [irinotecan, Irinotecan], the RTV22 is given as 1.9 ± 0.4 in series [5] (D0, 3, 7, 10, 14, 17) and 4.9 ± 1.3 in [6] (D0, 3, 7, 10, 14, 17). The “Animal body-weight (g_) End” value in series [5] (D0, 3, 7, 10, 14, 17, end) was found to be 20.6 ± 1.4 g; in series [6] (D0, 3, 7, 10, 14, 17, end), 18.7 ± 1.7 g. Besides, the “Animal body-weight (g_) Start” value in [5] (D0, 3, 7, 10, 14, 17, start) came out at 19.0 ± 0.8 g. In [1] (setting [12]), the viability at 10 µM is above 30%. In the series “Water-solubility”, this molecule returned a solubility of 1000 µg/mL (≈ 1700 µM). The molecule also showed a Lactone ring stability in series [4] below 50%.

In the case of Topotecan, the “H446 cell viability after drug treatment for 48 hours” value in series [1] (H446 cells, 0.1 μM, 48 hours) was 73%; in series [1] (H446 cells, 1.0 μM, 48 hours), 50%; in series [1] (H446 cells, 10 μM, 48 hours), 25% and 23%. Also, the Cancer cell viability in series [1] (setting [13]) is listed as above 30%. Moreover, the figures for the “MDAMB231 cell viability after drug treatment” value in series [2] (0.1 μM), in [2] (1.0 μM) and in series [2] (10 μM) were 68%, 50% and 23%, respectively. Also, the Water-solubility in the series “Water-solubility” turned out to be 1000 µg/mL. Also, the “MTD (Maximum Toxicity Dosage)” value in series [7] (NCI-H446 nude mice, i.v., 6 administrations) is 10 mg/kg. The animal death entry in series [7] (WQ1001 40 mg/kg Group, topotecan 10 mg/kg Group, to D22) is recorded as “no animal death appeared”. Besides, in series [7] (WQ1001 10, 20 and 40 mg/kg, topotecan 10 mg/kg, 6 administrations i.v.), the “tumor growth” value is on record as “significantly inhibited tumor growth”. Also, the “body weight change at the end of test” value in series [7] (end of test (D22), WQ1001 40 mg/kg Group, topotecan 10 mg/kg Group) was “decreased significantly”. The molecule further registered an RTV22 in series [7] (setting [14]) of 10.7 ± 4.8. The “T22/C22 (%)” value in [7] (setting [14]) stood at 49.3%. In addition, the “Animal body-weight (g_) End” value in [7] (topotecan 10 mg/kg i.v., D0, 4, 7, 11, 14, 17, end (D22)) came out at 16.4 ± 1.5 g; in series [8] (D2, 6, 10, end (Day 11)) it was 19.2 ± 0.9 g. The “Animal body-weight (g_) Start” value worked out at 17.6 ± 1.2 g in [7] (topotecan 10 mg/kg i.v., D0, 4, 7, 11, 14, 17, start) and 21.0 ± 1.6 g in series [8] (D2, 6, 10, start). In addition, the “HCT116 cell viability after drug treatment for 48 hours” value was 26% in [3] (0.1 μM), 2% in [3] (1.0 μM) and 6% in series [3] (10 μM). Moreover, in [4], the Lactone ring stability is below 50%. This molecule also returned an RTV11 in [8] (D2, 6, 10) of 25.3 ± 14.8. Besides, the “T11/C11 (%)” value in series [8] (D2, 6, 10) came out at 62.7%.
